# Results taken from publication PMC7359024, “Synthesis, Structure–Activity Relationship, and Mechanistic Studies of Aminoquinazolinones Displaying Antimycobacterial Activity” (ACS Infectious Diseases, 2020).
# Where two headings read alike, the source gives them in different places.
# Key:
# Mtb H37Rv strain = experiment: MIC90 determination in GASTE-Fe media (broth microdilution); type: cell-based, Mycobacterium tuberculosis; set-up: fold loss in activity/potency (MIC90): reference not given here
# [1] = type: in vitro ADME; details: for Metabolic Stability H (% Rem.): human liver microsomes; for Metabolic Stability M (% Rem.): mouse liver microsomes; for Metabolic Stability R (% Rem.): rat liver microsomes
# Experimental: 3.2. Microsomal stability
# The metabolic stability assay was performed in duplicate in a 96-well micro titre plate. The test compounds (0.1 μM) were incubated individually in mouse, rat and pooled human liver microsomes ((final protein concentration of 0.4 mg/mL; XenoTech, Lenexa, KS ), suspended in 0.1M phosphate buffer (pH 7.4) at 37 °C for predetermined time points, in the presence and absence of the cofactor NADPH (1 mM). Reactions were quenched by adding ice cold acetonitrile containing internal standard (carbamazepine, 0.0236 µg/mL). T he samples were centrifuged and test compound in the supernatant were analysed by means of LC -MS/MS (Agilent Rapid Resolution HPLC, AB SCIEX 4500 MS ). The relative loss of parent compound over time was monitored and plots (concentration vs. time) were prepared per compound to determine the first order rate constant for compound depletion. This was in turn used to calculate half-life, in vitro intrinsic clearance and in vivo hepatic extraction ratio. Metabolite searches were not conducted during the metabolic stability assay. 5
# physchem = type: physicochemical; details: kinetic solubility, pH 7.4, HPLC method
# Experimental: The kinetic solubility assay was performed using a miniaturised shake flask method. 10 mM stock solutions of each of the test compounds were used to prepare calibration standards (10-220μM) in DMSO. The same 10mM stock solutions were accurately dispensed in duplicate into 96-well plates and the DMSO dried down (MiVac GeneVac, 90 min, 37 °C). Thereafter, the samples were reconstituted (200 µM) in phosphate buffered saline (pH 7.4) and shaken (20 hours, 25 °C). The solutions were filtered and analysed by means of HPLC -DAD (Agilent 1200 Rapid Resolution HPLC with a diode array detector). […]
# in vitro = details: Chinese hamster
# [2] = Mycobacterium tuberculosis, H37RV, 336 h, read-out: MIC90 GAST-Fe
# [3] = Mtb H37Rv, replicating conditions, GASTE-Fe media, read 14 days after incubation, read-out: MIC90 GASTE-Fe
# [4] = Mycobacterium tuberculosis, H37RV, 336 h, Mtb H37Rv, replicating conditions, GASTE-Fe media, read 14 days after incubation, read-out: MIC90 GASTE-Fe
SMILES,MIC90 (Mtb H37Rv strain; [2]) [µM],Metabolic Stability H (% Rem.) [1],Metabolic Stability M (% Rem.) [1] [% Rem.],Metabolic Stability R (% Rem.) [1] [% Rem.],"solubility (physchem; 25 °C, pH 7.4, aqueous buffer) [µM]",MIC90 (Mtb H37Rv strain; [3]) [µM],MIC90 (Mtb H37Rv strain; [4]) [µM],IC50 (in vitro) [µM],solubility (physchem) [µM],fold loss in activity/potency (MIC90) (Mtb H37Rv strain) [fold]
C[S+]([O-])c1cccc(-c2ccc3nc(N)n(-c4ccccc4F)c(=O)c3c2)c1 (stereo not shown) [compound 50],67,–,–,–,–,–,–,–,–,–
"CN(C)c1nc2ccc(-c3cccc(S(C)(=O)=O)c3)cc2c(=O)n1-c1ccc(C(F)(F)F)cc1 [compound 43, 2-(Dimethylamino)-6-(3-(methylsulfonyl)phenyl)-3-(4-(trifluoromethyl)phenyl)quinazolin-4(3H)-one]",–,85 % Rem.,90,94,21.6,>125,> 125,–,–,–
COc1cncc(-c2ccc3nc(N)n(-c4ccc(C(F)(F)F)cc4)c(=O)c3c2)c1 [compound 24],–,72/-/- % Rem.,–,–,40,–,–,> 100,–,–
"NC[C@H]1O[C@H](O[C@H]2[C@H](O)[C@@H](O[C@H]3O[C@H](CO)[C@@H](O)[C@H](N)[C@H]3O)[C@H](N)C[C@@H]2N)[C@H](O)[C@@H](O)[C@@H]1O [Kanamycin, reference compound]",–,–,–,–,–,1.562,–,–,–,–
Nc1nc2ccc(-c3cccc(C(F)(F)F)c3)cc2c(=O)n1-c1ccc(C(F)(F)F)cc1 [compound 28],–,88/-/- % Rem.,–,–,40,–,0.75,> 100,–,–
CNC(=O)c1cccc(-c2ccc3nc(N)n(-c4ccc(C(F)(F)F)cc4)c(=O)c3c2)c1 [compound 11],–,98 % Rem.,100,100,< 5,–,0.78,96.3,–,–
"Nc1nc2ccc(-c3cccc(C(=O)N4CCSCC4)c3)cc2c(=O)n1-c1ccc(C(F)(F)F)cc1 [compound 18, 2-Amino-6-(3-(thiomorpholine-4-carbonyl)phenyl)-3-(4-(trifluoromethyl)phenyl)quinazolin-4(3H)-one]",–,8 % Rem.,22,23,46,–,0.656,> 50,–,–
C[S+]([O-])c1cccc(-c2ccc3nc(N)n(C4CCC(C(F)(F)F)CC4)c(=O)c3c2)c1 (stereo not shown) [compound 57],2.75,–,–,–,–,–,–,–,–,–
C[S+]([O-])c1cccc(-c2ccc3nc(N)n(C4CCC(F)(F)CC4)c(=O)c3c2)c1 (stereo not shown) [compound 56],45.7,95 % Rem.,83,81,> 100,–,–,–,125,–
Cc1ccc(-n2c(N)nc3ccc(-c4cccc([S+](C)[O-])c4)cc3c2=O)cc1 (stereo not shown) [compound 36],3.09,99 % Rem.,71,68,> 100,–,–,–,172,–
CN1CCN(C(=O)c2cccc(-c3ccc4nc(N)n(-c5ccc(C(F)(F)F)cc5)c(=O)c4c3)c2)CC1 [compound 19],–,97 % Rem.,94,86,51,–,1.57,> 50,–,–
CN(C)c1cccc(-c2ccc3nc(N)n(-c4ccc(C(F)(F)F)cc4)c(=O)c3c2)c1 [compound 27],–,37/-/- % Rem.,–,–,20,–,2.5,> 100,–,–
C[S+]([O-])c1cccc(-c2ccc3nc(N)n(-c4cccc(C#N)c4)c(=O)c3c2)c1 (stereo not shown) [compound 55],43,–,–,–,–,–,–,–,–,–
"Nc1nc2ccc(-c3cncc(C(=O)N4CCOCC4)c3)cc2c(=O)n1-c1ccc(C(F)(F)F)cc1 [compound 17, 2-Amino-6-(5-(morpholine-4-carbonyl)pyridin-3-yl)-3-(4-(trifluoromethyl)phenyl)quinazolin-4(3H)-one]",–,–,–,–,–,–,83,–,–,15
CC(C)(C)c1cccc(-c2ccc3nc(N)n(-c4ccc(C(F)(F)F)cc4)c(=O)c3c2)c1 [compound 26],–,–,–,–,–,–,10,> 100,–,–
